Measured values published in PubChem BioAssay (NCI).
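Five concentrations, 48 hours, 96-well plates. GI50 = concentration required for 50% inhibition of growth. Definition used: TGI = concentration required for complete inhibition of growth.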

Experiments:
Experiment in all cases: NCI tumour cell line growth inhibition, 48 h
T-47D breast = system: T-47D breast
MALME-3M melanoma = system: MALME-3M melanoma
A549 NSCLC = system: A549 NSCLC
UACC-62 melanoma = system: UACC-62 melanoma
HCT-116 colon = system: HCT-116 colon
OVCAR-5 ovarian = system: OVCAR-5 ovarian
NCI-H522 lung = system: NCI-H522 lung
MDA-MB-435 = system: MDA-MB-435
MOLT-4 leukemia = system: MOLT-4 leukemia
SK-MEL-5 melanoma = system: SK-MEL-5 melanoma

Row | Structure (SMILES) | TGI (T-47D breast) [µM] | TGI (MALME-3M melanoma) [µM] | TGI (A549 NSCLC) [µM] | TGI (UACC-62 melanoma) [µM] | TGI (HCT-116 colon) [µM] | TGI (OVCAR-5 ovarian) [µM] | TGI (NCI-H522 lung) [µM] | TGI (MDA-MB-435) [µM] | TGI (MOLT-4 leukemia) [µM] | TGI (SK-MEL-5 melanoma) [µM] | GI50 (T-47D breast) [µM] | GI50 (A549 NSCLC) [µM] | GI50 (UACC-62 melanoma) [µM] | GI50 (SK-MEL-5 melanoma) [µM] | GI50 (NCI-H522 lung) [µM] | GI50 (MDA-MB-435) [µM] | GI50 (MOLT-4 leukemia) [µM] | GI50 (MALME-3M melanoma) [µM] | GI50 (OVCAR-5 ovarian) [µM] | GI50 (HCT-116 colon) [µM]
1 | COc1ccc2c3c([nH]c2c1)[C@H](C=C(C)C)N1C(=O)[C@@H]2CCCN2C(=O)[C@@H]1C3 | > 100 | > 100 | > 100 | > 100 | > 100 | > 100 | > 100 | > 100 | > 100 |  |  |  |  |  |  |  |  |  |  | 
2 | Nc1ccc(Cc2ccc(N)c(C(=O)O)c2)cc1C(=O)O | > 100 | > 100 | > 100 | > 100 | > 100 | > 100 | > 100 | > 100 |  | > 100 |  |  |  |  |  |  |  |  |  | 
3 | COc1cc2cc[n+](C)c(Cc3ccc(Oc4cc(Cc5c6cc(OC)c(OC)cc6cc[n+]5C)ccc4OC)cc3)c2cc1OC | > 100 | > 100 | > 100 | > 100 | > 100 | > 100 | > 100 | > 100 | > 100 | > 100 |  |  |  |  |  |  |  |  |  | 
4 | CCCCSCCC(N)P(=O)(O)O (stereo unspecified) | > 100 |  | > 100 |  | > 100 | > 100 | > 100 | > 100 | > 100 | > 100 |  |  |  |  |  |  |  |  |  | 
5 | O=S(C(c1ccccc1)=P(c1ccccc1)(c1ccccc1)c1ccccc1)c1ccc(Cl)cc1 (stereo unspecified) | > 100 |  |  |  | 79.5 | > 100 | 38.6 | 40.6 | > 100 | 27 |  |  |  |  |  |  |  |  |  | 
6 | Cc1ccc(S(=O)(=O)Nc2cc(=O)[nH]c3c2CCC3)cc1 | > 100 | > 100 | > 100 | > 100 | > 100 | > 100 | > 100 | > 100 | > 100 | > 100 |  |  |  |  |  |  |  |  |  | 
7 | C[C@]12O[C@@]3(C)O[C@@]3(C)[C@]3(C)O[C@]3(C)[C@@]1(C)O2 | > 100 | > 100 | > 100 | > 100 | > 100 | > 100 | > 100 | > 100 | > 100 | > 100 |  |  |  |  |  |  |  |  |  | 
8 | O=C(NN1CCCCC1)c1cc2cc(CCl)ccc2oc1=O | 48.7 | 24.8 | 48.5 | 85.8 | 38 | 31.8 | 22.7 | 42.1 | 65.5 | 33.7 |  |  |  |  |  |  |  |  |  | 
9 | CCCC(=O)Nc1cc(/C=C/C(=O)N2CC(CCl)c3c2cc(OC(C)=O)c2[nH]cc(C)c32)n(C)c1 (stereo unspecified) | 0.0689 | 9.55e-05 |  | 4.23e-05 |  |  | 4.26e-05 | 0.000686 | 0.00436 | 5.84e-05 |  |  |  |  |  |  |  |  |  | 
10 | C=CCc1cccc(/C(O)=C/C(=O)/C=C/c2ccccc2Cl)c1O | > 100 |  | > 100 | 43.3 | > 54.3 | > 100 | 31 | > 100 | 15.6 | 31.7 |  |  |  |  |  |  |  |  |  | 
11 | CN(CCCN1CCCC1)CCCN(C)C(=O)Cc1ccc(Cl)c(Cl)c1 | 45.9 | 34.6 | > 53.6 | 5.04 | 39.3 | 78.1 | 32.4 | 11.7 | 32.4 | 36.3 |  |  |  |  |  |  |  |  |  | 
12 | CCOC(=O)c1cccc(N=Nc2ncc(/C=C/C(=O)OC)[nH]2)c1 | 89.7 | 70.3 | > 100 | 63.2 | 69.7 | > 100 | 47.2 | > 100 | 28.9 | 30.1 |  |  |  |  |  |  |  |  |  | 
13 | COc1ccc(-n2nnc3c(C#N)c(C)c(-c4ccccc4)n3c2=O)cc1 | > 100 | > 100 | > 38.8 | > 100 | 2.65 | > 57.6 |  |  | > 58.1 | 17 |  |  |  |  |  |  |  |  |  | 
14 | CC(NC(=O)c1ccc(OP(=O)(OCc2ccc([N+](=O)[O-])o2)N(C)CCCCCl)cc1)c1ccc(OCC2CCCCC2)c(C(N)=O)c1 (stereo unspecified) | > 20.1 | 10.7 | > 21.4 | 7.39 | 9.5 | > 47.6 | 6.44 | 6.3 | 6.89 | 6.14 |  |  |  |  |  |  |  |  |  | 
15 | COc1cc(/C=C2\CC3C4CC[C@H]5C[C@@H](O)CC[C@]5(C)C4CC[C@]3(C)\C2=N\O)cc(OC)c1OC (stereo partly specified) | 36.9 | 42.8 | > 100 | 35 | 21.4 | > 100 | 94.8 | 34.8 | 37.5 | 30.7 |  |  |  |  |  |  |  |  |  | 
16 | CS(=O)(=O)Nc1ccc(NCc2cnc3ccc4[nH]cccc4c23)cc1 | 66.6 | 46.6 | > 100 | 30.7 | 51.8 | > 100 | 42.3 | 32.5 | 33.6 | 28.8 |  |  |  |  |  |  |  |  |  | 
17 | NC(N)=N/N=C/c1c(-c2cccs2)nc2n1CCS2 | 37.3 |  | > 100 | 26.4 |  |  | > 100 | 30.7 | 28.5 | 29.1 | 17.5 | > 100 | 13.5 | 15.6 | 38.2 | 16.7 | 13.9 |  |  | 
18 | Cc1c2ccccc2cc2cccc[n+]12 |  | 27.9 | > 100 | > 100 | > 100 | > 100 | 37.4 | > 100 | > 100 | 92.3 |  |  |  |  |  |  |  |  |  | 

Row | Structure (SMILES) | TGI (T-47D breast) [µM] | TGI (MALME-3M melanoma) [µM] | TGI (A549 NSCLC) [µM] | TGI (UACC-62 melanoma) [µM] | TGI (HCT-116 colon) [µM] | TGI (OVCAR-5 ovarian) [µM] | TGI (NCI-H522 lung) [µM] | TGI (MDA-MB-435) [µM] | TGI (MOLT-4 leukemia) [µM] | TGI (SK-MEL-5 melanoma) [µM] | GI50 (T-47D breast) [µM] | GI50 (A549 NSCLC) [µM] | GI50 (UACC-62 melanoma) [µM] | GI50 (SK-MEL-5 melanoma) [µM] | GI50 (NCI-H522 lung) [µM] | GI50 (MDA-MB-435) [µM] | GI50 (MOLT-4 leukemia) [µM] | GI50 (MALME-3M melanoma) [µM] | GI50 (OVCAR-5 ovarian) [µM] | GI50 (HCT-116 colon) [µM]
19 | OC1CCSc2ccccc21 (stereo unspecified) |  | > 100 | > 100 | > 100 | > 100 | > 100 | > 100 |  | > 100 | > 100 |  |  |  |  |  |  |  |  |  | 
20 | CC(C)C(=O)CC(c1ccc(Br)cc1)N1N=C(C(C)C)CC1c1ccc(Br)cc1 (stereo unspecified) |  | > 100 | > 100 |  | > 100 | > 100 | > 100 |  | > 100 |  |  |  |  |  |  |  |  |  |  | 
21 | Oc1ccc(Cl)cc1C1=Nn2c(COc3ccc4c(c3)CCCC4)nnc2SC1 | 34.3 | > 100 | 92.9 | 25.4 | 19.4 | 34.6 | 21.6 | 36.1 | 43.8 | 19 |  |  |  |  |  |  |  |  |  | 
22 | CN(C)c1ccc(/C=C2\C[C@H]3[C@@H]4CC=C5C[C@@H](O)CC[C@]5(C)[C@H]4CC[C@]3(C)[C@H]2O)cc1 | 76.6 | 38.4 | 38.6 | 30.2 | 28.1 | 36.2 |  |  | > 100 | 34.3 |  |  |  |  |  |  |  |  |  | 
23 | COc1cc(S(=O)(=O)Nc2ccc(-c3csc(/N=C\c4cccc(Oc5ccccc5)c4)n3)cc2)ccc1Cl | 34.4 | > 100 | > 100 | 25.1 | 92.6 | > 100 | 66.6 | > 100 | > 100 | > 100 |  |  |  |  |  |  |  |  |  | 
24 | CS(=O)(=O)Nc1cccc(-c2ccc3ncnc(Nc4cncc(Cl)c4)c3c2)c1 | 6.36 | 8.38 | > 100 | 3.86 |  | > 100 | 4.93 | > 100 | 7.61 | 3.74 | 0.726 | 2.5 | 1.75 | 1.75 | 1.75 | 3.2 | 2.38 | 2.34 | 2.05 | 
25 | Nc1csc(-c2scc3c2OCCO3)c1N |  | 36 | > 100 | 45.1 | 46.4 | 39.9 | 33.8 | 36.1 | > 100 | 35.4 |  |  |  |  |  |  |  |  |  | 
26 | CC(CCCCNC(=O)OC(C)(C)C)NC(=O)NC(C)CCCCNC(=O)OC(C)(C)C (stereo unspecified) | > 100 | > 100 | > 100 | > 100 | > 100 | > 100 | > 100 | > 100 | > 100 | > 100 |  |  |  |  |  |  |  |  |  | 
27 | Cc1cc(=O)[nH]c(S(=O)(=O)NC(=O)Nc2cccc(Cl)c2)n1 | > 100 | > 100 | > 100 | > 100 | > 100 | > 100 | > 100 | > 48.3 | > 100 | > 100 |  |  |  |  |  |  |  |  |  | 
28 | CN(CCN1C(=O)c2cccc3cccc(c23)C1=O)CCN1C(=O)c2cccc3cccc(c23)C1=O | 10.2 | > 100 | > 100 | > 100 | > 100 | > 100 | 40.6 | > 100 | > 100 | > 100 |  |  |  |  |  |  |  |  |  | 
29 | CC12OC(C(=O)C13CCC3)C1C(=O)c3c(O)ccc(O)c3C(=O)C12 (stereo unspecified) | 3.2 | 3.88 | 22.3 | > 36.6 | 1.78 | 4.29 | 10.2 | 5.81 |  | 26.1 | 0.948 | 5.79 | 3.56 | 11 | 2.95 | 2.3 | 0.123 | 1.8 | 2.14 | 0.571
30 | CC(C)(C)COS(=O)OCC(C)(C)C | > 100 | > 100 | > 100 | > 100 | > 100 | > 100 | > 100 | > 100 | > 100 | > 100 |  |  |  |  |  |  |  |  |  | 
31 | O=C1/C(=C/c2ccc([N+](=O)[O-])cc2)Sc2scc(-c3cccc([N+](=O)[O-])c3)[n+]21 | 24.3 | 3.22 | 56.7 | 29.9 | 18.1 | 24.8 | 2.69 | 18.4 | > 20.1 | 18.6 |  |  |  |  |  |  |  |  |  | 
32 | CN(CCc1ccccn1)c1ccc2c(c1)Cc1ccccc1-2 | 92.5 | 93.7 | > 100 | > 100 | > 100 | > 100 | 62.1 | > 100 | > 100 | 31.3 |  |  |  |  |  |  |  |  |  | 
33 | Fc1c(F)c(F)c(CSc2nc3ccccc3[nH]2)c(F)c1F | > 100 | > 100 | > 100 | > 100 | > 100 | > 100 | > 100 | > 100 | > 100 | > 100 |  |  |  |  |  |  |  |  |  | 
34 | C#C[C@]1(O)[C@@H](CO)O[C@@H](n2ccc(=O)[nH]c2=O)[C@@H]1O | 1.9 | 7.62 | > 100 | 3.56 |  | > 100 | 1.64 | 3 |  | 13 |  |  |  |  |  |  |  |  |  | 
35 | C/C=C/C(O)P(=O)(OC)OC (stereo unspecified) | 1.55 | 1.17 | 1.07 | 0.785 | 0.835 | 1.22 | 0.664 | 0.802 | 11.2 | 0.483 |  |  |  |  |  |  |  |  |  | 
